# Data reported in BindingDB's records for doi:10.1016/j.bioorg.2014.11.006 (Comsats Institute of Information Technology, 2015).
# pIC50: −log10 of the molar value.
# Target: Alpha-glucosidase MAL12 (Saccharomyces cerevisiae (strain ATCC 204508 / S288c), UniProt P53341)
# Test: Alpha-glucosidase Inhibition Assay
# Details: 37 °C
# Experimental: A 100 µL assay mixture containing 70 µL phosphate buffer saline (50 mM at pH 6.8), 10 µL corresponding test compounds dissolved in methanol/DMSO (0.5 mM) and 10 µL (0.057 units) α-glucosidase enzyme were mixed, pre-incubated for 10 min at 37C and the abosrbance was recorded at 400 nm. The reaction was initiated by the addition of 10 µL p-nitrophenyl-α-D-glucopyranoside (substrate, 0.5 mM/well).
# Sequence of Alpha-glucosidase MAL12 (P53341 whole entry): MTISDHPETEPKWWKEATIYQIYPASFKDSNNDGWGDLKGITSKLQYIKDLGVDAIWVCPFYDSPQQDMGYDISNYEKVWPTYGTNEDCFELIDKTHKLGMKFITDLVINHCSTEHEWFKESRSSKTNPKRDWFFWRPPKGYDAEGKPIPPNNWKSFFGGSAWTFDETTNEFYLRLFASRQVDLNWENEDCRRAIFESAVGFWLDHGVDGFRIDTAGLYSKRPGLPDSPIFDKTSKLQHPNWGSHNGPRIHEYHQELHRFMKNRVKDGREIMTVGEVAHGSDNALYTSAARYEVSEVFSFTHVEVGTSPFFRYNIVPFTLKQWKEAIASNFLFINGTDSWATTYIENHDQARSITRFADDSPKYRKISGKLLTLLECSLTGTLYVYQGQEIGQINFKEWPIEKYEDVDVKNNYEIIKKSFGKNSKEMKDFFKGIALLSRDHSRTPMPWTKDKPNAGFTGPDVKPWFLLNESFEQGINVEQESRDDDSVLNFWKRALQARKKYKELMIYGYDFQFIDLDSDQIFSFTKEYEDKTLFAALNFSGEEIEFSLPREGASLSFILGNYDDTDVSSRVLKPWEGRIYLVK
row,SMILES,pIC50
1,COc1cccc(-c2nc(-c3ccccc3)c(-c3ccccc3)[nH]2)c1,3.44
2,Oc1ccccc1-c1nc(-c2ccccc2)c(-c2ccccc2)[nH]1,4.13
3,"COc1cccc(-c2nc(-c3ccccc3)c(-c3ccccc3)[nH]2)c1O [2-(4,5-Diphenyl-1H-imidazol-2-yl)-6-methoxyphenol (3g)]",3.97

# Second part, the molecule after the results:
row,pIC50,SMILES
1,4.01,Oc1ccc(-c2nc(-c3ccccc3)c(-c3ccccc3)[nH]2)cc1 [SR-01000511510-2]
2,3.34,Clc1ccc(-c2nc(-c3ccccc3)c(-c3ccccc3)[nH]2)cc1
